In ChEMBL document CHEMBL1909046, “DrugMatrix in vitro pharmacology data”:

How the values were obtained:
[1] = DRUGMATRIX: Glutamate, NMDA, Phencyclidine radioligand binding (ligand: [3H] TCP); type: cell membranes, Rattus norvegicus, Wistar, Cerebral cortex, Membrane; conditions: Not Active = under 50% inhibition at 10 µM
[2] = target: T1, Angiotensin-converting enzyme (Oryctolagus cuniculus, UniProt P12822); type: tissue-based, Lung;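 also: enzymatic inhibition of angiotensin-converting enzyme measured with FAPGG as the substrate; in other assays of this panel Not Active means under 50% inhibition at 10 µM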
T1 sequence (P12822 whole entry): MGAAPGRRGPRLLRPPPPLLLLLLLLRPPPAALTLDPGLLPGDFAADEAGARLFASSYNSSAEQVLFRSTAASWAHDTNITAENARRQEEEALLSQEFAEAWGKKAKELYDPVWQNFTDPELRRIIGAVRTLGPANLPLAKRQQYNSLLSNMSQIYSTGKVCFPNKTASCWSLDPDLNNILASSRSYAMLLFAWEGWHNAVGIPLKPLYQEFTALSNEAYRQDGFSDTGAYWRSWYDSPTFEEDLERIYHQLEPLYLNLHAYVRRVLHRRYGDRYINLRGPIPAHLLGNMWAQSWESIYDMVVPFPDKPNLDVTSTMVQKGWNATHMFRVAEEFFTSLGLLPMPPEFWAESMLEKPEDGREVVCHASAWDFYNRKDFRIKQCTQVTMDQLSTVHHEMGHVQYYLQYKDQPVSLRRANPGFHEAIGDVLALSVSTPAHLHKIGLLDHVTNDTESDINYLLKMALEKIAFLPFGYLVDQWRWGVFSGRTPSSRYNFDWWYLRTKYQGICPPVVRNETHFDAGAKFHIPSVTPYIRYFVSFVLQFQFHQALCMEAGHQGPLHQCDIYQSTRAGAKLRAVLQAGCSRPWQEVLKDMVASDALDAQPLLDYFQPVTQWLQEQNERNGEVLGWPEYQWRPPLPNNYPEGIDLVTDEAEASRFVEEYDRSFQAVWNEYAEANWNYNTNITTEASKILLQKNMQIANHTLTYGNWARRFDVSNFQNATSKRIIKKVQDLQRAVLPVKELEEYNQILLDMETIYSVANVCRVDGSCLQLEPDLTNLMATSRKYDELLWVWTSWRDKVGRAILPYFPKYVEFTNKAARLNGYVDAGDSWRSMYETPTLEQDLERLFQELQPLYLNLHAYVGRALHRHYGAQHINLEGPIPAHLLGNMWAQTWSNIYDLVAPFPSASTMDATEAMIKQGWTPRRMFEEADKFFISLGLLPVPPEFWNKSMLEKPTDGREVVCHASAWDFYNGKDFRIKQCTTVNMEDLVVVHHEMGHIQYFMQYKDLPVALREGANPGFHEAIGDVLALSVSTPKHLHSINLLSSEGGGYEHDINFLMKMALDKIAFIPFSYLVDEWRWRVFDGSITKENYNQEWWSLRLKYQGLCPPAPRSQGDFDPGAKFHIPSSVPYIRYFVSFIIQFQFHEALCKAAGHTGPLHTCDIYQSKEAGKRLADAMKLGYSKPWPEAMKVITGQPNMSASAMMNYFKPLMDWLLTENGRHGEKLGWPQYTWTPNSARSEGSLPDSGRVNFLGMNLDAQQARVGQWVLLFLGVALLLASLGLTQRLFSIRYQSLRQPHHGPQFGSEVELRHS

Interstitial collagenase = target: T2, Interstitial collagenase (Homo sapiens, UniProt P03956); type: tissue-based, Rheumatoid synovial fibroblasts;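 also: MMP-1 enzyme inhibition assay using a peptide substrate; in other assays of this panel Not Active means under 50% inhibition at 10 µM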
T2 sequence (P03956 whole entry): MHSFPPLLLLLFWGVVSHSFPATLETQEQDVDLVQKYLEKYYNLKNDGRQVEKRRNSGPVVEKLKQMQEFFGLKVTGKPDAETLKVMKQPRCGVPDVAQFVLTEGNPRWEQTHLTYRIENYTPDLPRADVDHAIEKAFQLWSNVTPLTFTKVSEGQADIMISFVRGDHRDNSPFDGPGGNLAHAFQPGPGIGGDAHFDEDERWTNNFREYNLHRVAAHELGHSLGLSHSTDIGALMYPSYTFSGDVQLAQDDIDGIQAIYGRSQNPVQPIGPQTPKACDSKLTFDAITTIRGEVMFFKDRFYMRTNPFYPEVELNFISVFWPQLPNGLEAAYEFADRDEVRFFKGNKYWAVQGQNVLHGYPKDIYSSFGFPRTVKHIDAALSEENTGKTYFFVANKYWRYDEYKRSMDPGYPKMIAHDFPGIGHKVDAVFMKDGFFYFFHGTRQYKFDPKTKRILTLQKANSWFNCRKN

[3] = DRUGMATRIX: Phorbol Ester radioligand binding (ligand: [3H] PDBu); type: cell membranes, Mus musculus, ICR, Brain, Membrane; conditions: Not Active = under 50% inhibition at 10 µM
Neutrophil elastase = target: T3, Neutrophil elastase (Homo sapiens, UniProt P08246); type: tissue-based;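 also: inhibition of neutrophil elastase enzyme activity, measured with a p-nitroanilide-linked peptide substrate; in other assays of this panel Not Active means under 50% inhibition at 10 µM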
T3 sequence (P08246 whole entry): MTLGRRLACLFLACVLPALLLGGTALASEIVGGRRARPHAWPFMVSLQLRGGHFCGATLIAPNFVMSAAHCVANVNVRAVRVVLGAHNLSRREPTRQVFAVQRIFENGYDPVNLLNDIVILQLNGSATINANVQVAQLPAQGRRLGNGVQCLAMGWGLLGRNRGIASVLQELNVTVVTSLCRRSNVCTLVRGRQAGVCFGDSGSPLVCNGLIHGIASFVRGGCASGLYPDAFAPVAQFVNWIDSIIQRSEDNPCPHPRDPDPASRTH

Glycine receptor = Glycine receptor (Rattus norvegicus, UniProt P22771+P24524+P07727+P20781); type: cell membranes, Wistar, Spinal cord, Membrane; also: in other assays of this panel Not Active means under 50% inhibition at 10 µM
[4] = target: Receptor tyrosine-protein kinase erbB-2 (Homo sapiens, UniProt P04626); test: biochemical; type: cell-based, Insect cells; conditions: insect cells
[5] = target: Beta-1 adrenergic receptor (Homo sapiens, UniProt P08588); test: DRUGMATRIX: Adrenergic beta1 radioligand binding (ligand: [125I] Cyanopindolol); type: cell membranes, CHO-K1, Membrane; conditions: cho-k1; Not Active = under 50% inhibition at 10 µM
Sequence of Beta-1 adrenergic receptor (P08588 whole entry): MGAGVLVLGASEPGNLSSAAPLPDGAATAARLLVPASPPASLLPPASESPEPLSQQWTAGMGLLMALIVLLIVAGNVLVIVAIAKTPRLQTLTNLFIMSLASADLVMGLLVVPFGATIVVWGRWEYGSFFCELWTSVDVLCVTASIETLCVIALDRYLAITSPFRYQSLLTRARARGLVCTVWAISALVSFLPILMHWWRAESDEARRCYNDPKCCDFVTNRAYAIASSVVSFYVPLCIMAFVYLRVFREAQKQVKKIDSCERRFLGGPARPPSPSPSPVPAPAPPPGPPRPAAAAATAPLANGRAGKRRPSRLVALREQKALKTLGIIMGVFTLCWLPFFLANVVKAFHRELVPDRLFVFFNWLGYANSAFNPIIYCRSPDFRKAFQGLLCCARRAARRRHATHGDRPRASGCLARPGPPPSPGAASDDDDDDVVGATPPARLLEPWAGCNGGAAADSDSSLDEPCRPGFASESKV

Molecule	IC50 [1]	Ki [1]	IC50 [2]	IC50 (Interstitial collagenase)	IC50 [3]	Ki [3]	IC50 (Neutrophil elastase)	IC50 (Glycine receptor)	IC50 [4]	IC50 [5]	Ki [2]	Ki (Interstitial collagenase)	Ki (Neutrophil elastase)	Ki (Glycine receptor)	IC50 ([4]; read-out: IC50)	Ki [5]	Ki [4]
OCCN1CCN(CCCN2c3ccccc3Sc3ccc(Cl)cc32)CC1 [PERPHENAZINE]	Not Active	Not Active	Not Active	Not Active	Not Active	Not Active	Not Active	Not Active	Not Active	Not Active	–	–	–	–	–	–	–
CCCCC1C(=O)N(c2ccccc2)N(c2ccccc2)C1=O [PHENYLBUTAZONE]	Not Active	Not Active	Not Active	Not Active	Not Active	Not Active	Not Active	Not Active	Not Active	Not Active	–	–	–	–	–	–	–
Cc1cccc(Nc2cc(Cl)nc(SCC(=O)O)n2)c1C [PIRINIXIC ACID]	Not Active	Not Active	Not Active	Not Active	Not Active	Not Active	Not Active	Not Active	Not Active	Not Active	–	–	–	–	–	–	–
CC[C@H](C)C(=O)O[C@H]1C[C@H](O)C=C2C=C[C@H](C)[C@H](CC[C@@H](O)C[C@@H](O)CC(=O)O)[C@H]21 [PRAVASTATIN]	Not Active	Not Active	Not Active	Not Active	Not Active	Not Active	Not Active	Not Active	Not Active	Not Active	–	–	–	–	–	–	–
CC(C)(Sc1cc(C(C)(C)C)c(O)c(C(C)(C)C)c1)Sc1cc(C(C)(C)C)c(O)c(C(C)(C)C)c1 [PROBUCOL]	Not Active	Not Active	Not Active	Not Active	Not Active	Not Active	Not Active	Not Active	Not Active	Not Active	–	–	–	–	–	–	–
COBALT(II) ACETYLACETONATE	Not Active	Not Active	Not Active	Not Active	Not Active	Not Active	Not Active	Not Active	–	Not Active	Not Active	Not Active	Not Active	Not Active	3.17 µM	Not Active	–
INSULIN HUMAN	Not Active	Not Active	Not Active	Not Active	Not Active	Not Active	Not Active	Not Active	Not Active	Not Active	Not Active	Not Active	Not Active	Not Active	–	Not Active	Not Active
POLYVINYL ALCOHOL	Not Active	Not Active	Not Active	Not Active	Not Active	Not Active	Not Active	Not Active	Not Active	Not Active	Not Active	Not Active	Not Active	Not Active	–	Not Active	Not Active
